In paper PMC8850458, “The AUTOTAC chemical biology platform for targeted protein degradation via the autophagy-lysosome system” (Nature Communications, 2022):

Tests used:
mutant desminL385P = target: T1, mutant desminL385P (Homo sapiens, UniProt P17661, L385P); assay: WB degradation of mutant desmin in HeLa cells; format: cell-based; settings: exogenously expressed
T1 construct: expressed in transfected cells; host or cells: HeLa, transient
Description: (§1) Adherent cells were washed with phosphate-buffered saline (PBS) and cell pellets were lysed in SDS-based sample buffer (277.8 mM Tris-HCI, pH 6.8, 4.4% LDS, 44.4% (v/v) glycerol) containing beta-mercaptoethanol. Alternatively, cell pellets or protein supernatants were lysed in 5X Laemmli sample buffer. Whole-cell lysates were separated using SDS-PAGE, and transferred onto polyvinyllidene difluoride membranes at 100 V for 2 h at 4 °C. The membrane was incubated with a blocking solution consisting 4% skim milk in PBS solution for 30 min at room temperature and incubated with primary antibodies overnight, followed by incubation with host-specific HRP-conjugated secondary antibodies (1:10000 dilution). For signal detection, the membrane was developed with a mixture of ECL solution (Thermo Fisher Scientific) using X-ray films. Densitometry of developed bands was measured and analyzed with ImageJ (NIH, Bethesda).
(§2) Supplementary Fig. 5. AUTOTACs selectively target pathological aggregation-prone proteins for autophagic degradation. (a) WB in HEK293T cells treated with PBA-1105 (1 μM) and MG132 (1 μM, 24 h) at the indicated time points. (b) ICC of HeLa cells treated with the indicated compounds (1 μM, 24 h). Scale bar, 10 μm. (c) WB in HEK293T cells treated with PBA-1105 (500 nM, 24 h) and MG132 (1 μM, 24 h) under siRNA-mediated knockdown of p62 or ATG7 (20 nM, 48 h). (d) ICC in HeLa cells transiently expressing WIPI2-GFP and treated with Anle138b-F105 (1 μM, 24 h). Scale bar, 10 μm. (e) ICC in HeLa cells treated with […]
(§3) nM, 24 h). (g, h) WB in HeLa cells transiently expressing wild type or mutant (L385P) desmin-flag with LacZ-myc and treated with PBA-1105, PBA-1105b or Anle138b-F105 at the […]

wild-type desmin = target: T2, wild-type desmin (Homo sapiens, UniProt P17661); assay: WB degradation of wild-type desmin in HeLa cells; format: cell-based; settings: exogenously expressed
T2 construct: expressed in transfected cells; host or cells: HeLa, transient
T2 sequence (P17661 whole entry): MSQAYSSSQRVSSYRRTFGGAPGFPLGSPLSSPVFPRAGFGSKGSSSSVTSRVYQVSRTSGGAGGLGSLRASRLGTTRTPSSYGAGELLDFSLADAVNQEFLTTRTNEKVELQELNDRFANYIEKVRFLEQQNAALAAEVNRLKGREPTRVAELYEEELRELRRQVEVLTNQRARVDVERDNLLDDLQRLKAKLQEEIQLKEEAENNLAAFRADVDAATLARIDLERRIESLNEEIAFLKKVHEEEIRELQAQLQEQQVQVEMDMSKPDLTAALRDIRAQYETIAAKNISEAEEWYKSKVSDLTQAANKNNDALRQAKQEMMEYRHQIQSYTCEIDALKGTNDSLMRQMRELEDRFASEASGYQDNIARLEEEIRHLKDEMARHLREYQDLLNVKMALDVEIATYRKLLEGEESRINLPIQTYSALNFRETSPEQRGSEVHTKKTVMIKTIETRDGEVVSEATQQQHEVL
Description: as §1, §2, §3

p62 = target: T3, p62 (Homo sapiens, UniProt Q13501); assay: In vitro p62 oligomerization assay; format: biochemical; settings: HEK293T lysate
T3 construct: expressed in transfected cells; host or cells: HEK293T, transient; whole lysate used
T3 sequence (Q13501 whole entry): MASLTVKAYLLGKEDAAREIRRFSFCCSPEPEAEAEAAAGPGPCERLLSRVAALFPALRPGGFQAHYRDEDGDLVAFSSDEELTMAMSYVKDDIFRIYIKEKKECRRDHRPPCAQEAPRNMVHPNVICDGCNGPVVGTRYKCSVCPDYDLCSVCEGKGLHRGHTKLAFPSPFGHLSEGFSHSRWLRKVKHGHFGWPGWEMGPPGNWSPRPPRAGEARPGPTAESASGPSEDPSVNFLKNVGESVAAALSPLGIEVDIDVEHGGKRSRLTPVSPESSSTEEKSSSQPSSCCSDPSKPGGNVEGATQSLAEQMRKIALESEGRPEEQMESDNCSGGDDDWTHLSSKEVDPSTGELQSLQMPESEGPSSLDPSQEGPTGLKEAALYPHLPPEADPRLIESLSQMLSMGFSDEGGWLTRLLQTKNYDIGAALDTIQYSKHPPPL
Description: HEK293T cells were transiently transfected with a plasmid encoding p62-myc/his fusion proteins. Cells were resuspended in lysis buffer [50 mM HEPES (pH 7.4), 0.15 M KCl, 0.1% Nonidet P-40), 10% glycerol, containing a mixture of protease inhibitors and phosphatase inhibitor (Abcam)]. To lyse the cells, 10 cycles of freezing and thawing was done, followed by centrifugation at 13,000 × g for 20 min at 4 °C. Using a BCA assay, the protein concentration of the supernatant was measured. A total of 1 μg of protein was incubated with 1 mM of p62-ZZ ligands in the presence of 100 μM bestatin (Enzo) at room temperature for 2 h. After incubation, each sample was mixed with non-reducing 4X LDS sample buffer, heated at 95 °C for 10 min, and resolved using 4–20% gradient SDS-PAGE (Bio-Rad). To monitor the conversion of p62 monomers into oligomers or aggregates, IB assay was performed using anti-myc antibody.

[1] = tested on: mutant huntingtin (Htt-NES-Q97, Htt-NLS-Q97); assay: WB autophagy flux/degradation of mutant huntingtin in HeLa cells; format: cell-based; settings: HttQ97-NLS-GFP, 24 h post-treatment; read-out: DC50 against the nuclear subpopulation of Htt
Description: as §1
Supplementary Fig. 7. AUTOTACs selectively degrade pathological mutant huntingtin.
(a) WB in HeLa-Htt-NLS-Q97-GFP cells treated with PBA-1106 or PBA-1105 (2.5 μM, 24 h) with or without HCQ (25 μM, 24 h). (b) Identical to a but with YOK-1106 instead of PBA-1105 in HeLa-Htt-NES-Q97-GFP cells. […] (k) Quantification of j (n=3 biologically independent experiments each counting 50 cells). […]

tauP301L = tauP301L (Homo sapiens, UniProt P10636, P618L); assay: WB degradation of tauP301L in SH-SY5Y-tauP301L cells; format: cell-based
Chain of tauP301L (P10636 1-441 isoform P10636-8 P301L): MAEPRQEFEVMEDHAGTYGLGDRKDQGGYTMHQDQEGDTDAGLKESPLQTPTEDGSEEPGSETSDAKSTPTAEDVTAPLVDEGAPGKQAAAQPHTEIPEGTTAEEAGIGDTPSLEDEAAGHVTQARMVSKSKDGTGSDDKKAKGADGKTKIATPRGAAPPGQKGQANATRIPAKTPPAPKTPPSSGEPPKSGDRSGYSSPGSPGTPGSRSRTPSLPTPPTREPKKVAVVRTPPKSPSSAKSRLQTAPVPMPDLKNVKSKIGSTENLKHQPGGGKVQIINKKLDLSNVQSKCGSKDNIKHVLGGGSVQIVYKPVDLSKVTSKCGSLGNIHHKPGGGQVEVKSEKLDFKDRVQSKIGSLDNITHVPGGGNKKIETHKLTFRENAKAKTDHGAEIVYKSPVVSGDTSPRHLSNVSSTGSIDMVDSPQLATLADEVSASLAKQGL
Description: as §1

T1 sequence (P17661 whole entry L385P): as the sequence (P17661 whole entry) above, with L385P counted along it

Fc1ccc(COc2cccc(CNCCOCCOCCNc3cccc(-c4cc(-c5ccc6c(c5)OCO6)n[nH]4)c3)c2)cc1 [Anle138b-F105]
degradation of mutant desminL385P (mutant desminL385P): induced the degradation
degradation of wild-type desmin (wild-type desmin): not wild-type desmin
p62 self-oligomerization (p62): facilitated p62 self-polymerization
DC50 [1]: ~3 nM
persistence of mutant tau degradation post-washout (tauP301L; 100 nM 24 h, then washout): at least 8 h
DC50 (tauP301L; SH-SY5Y-tauP301L cells): ~3 nM
